Active and inactive are the calls of the source. The rule behind the calls is not given here.
Legend:
Rattus norvegicus [1] = experiment: Effect on postural hypotension in Sprague-Dawley rat assessed as change in systolic blood pressure at 5 mg/kg, po treated for >30 mins followed by induction of postural hypotension measured 40 secs after postural change (reference value: 128 +/- 11 mmHg); assay type: functional; conditions: time > 30.67 min, 0.5112 h
[2] = AUC (0 to t) in Sprague-Dawley rat at 1 mg/kg, iv measured for 24 hrs by UPLC/MS/MS analysis; assay type: ADME, organism-based; conditions: in vivo
[3] = Cmax in female Sprague-Dawley rat at 30 mg/kg, po measured on day 1 by UP/LC/MS/MS analysis; assay type: ADME, organism-based; conditions: in vivo, time 1 day
[4] = Acute toxicity in Sprague-Dawley rat assessed as change in body weight at 250 to 1000 mg/kg, po single administration measured for 14 days; assay type: organism-based; conditions: in vivo, 336 h, dose 250-1000 mg/kg, time 14 day
[5] = Metabolic stability in rat liver microsomes assessed as drug metabolism at 10 umol/L incubated upto 120 mins in presence of NADPH by LC-MS/MS analysis; assay type: ADME, Microsome; conditions: 2 h, 10 µM, dose 10 µmol/L
[6] = Plasma protein binding in human at 0.1 uM incubated for 30 mins; assay type: ADME, cell-free; conditions: read-out: PPB (converted)
Rattus norvegicus [7] = experiment: Effect on serum K+ level in 2K2C renovascular hypertensive Sprague-Dawley rat model at 10 mg/kg, po measured after 9 weeks by biochemical analysis; assay type: functional, organism-based
[8] = molecular target: 5-hydroxytryptamine receptor 2A (Homo sapiens, UniProt P28223); experiment: Displacement of [3H]Ketanserin from recombinant human 5-HT2A receptor extracted from CHO cell membrane at 10 nM incubated for 60 mins by radioligand binding assay relative to control; assay type: cell membranes; conditions: filed as antagonist
Sequence of 5-hydroxytryptamine receptor 2A (P28223 whole entry): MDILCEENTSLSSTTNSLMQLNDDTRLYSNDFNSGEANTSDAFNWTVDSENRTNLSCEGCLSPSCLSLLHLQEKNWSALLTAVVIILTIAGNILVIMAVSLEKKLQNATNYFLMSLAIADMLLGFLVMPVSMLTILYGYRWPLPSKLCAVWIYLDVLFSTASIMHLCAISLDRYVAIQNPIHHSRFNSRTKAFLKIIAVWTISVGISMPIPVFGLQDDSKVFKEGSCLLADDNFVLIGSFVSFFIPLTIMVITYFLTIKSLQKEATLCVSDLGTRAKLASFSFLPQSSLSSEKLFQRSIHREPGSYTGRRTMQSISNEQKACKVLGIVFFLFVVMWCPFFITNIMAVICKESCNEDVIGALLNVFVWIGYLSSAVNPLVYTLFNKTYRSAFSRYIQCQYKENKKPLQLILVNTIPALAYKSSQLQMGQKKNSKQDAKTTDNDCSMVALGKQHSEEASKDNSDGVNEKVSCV

[9] = Tmax in male Sprague-Dawley rat at 100 mg/kg, po qd treated for 13 weeks consecutively measured after recovery period on day 91 by UP/LC/MS/MS analysis; assay type: ADME, organism-based; conditions: in vivo, time 91 day
[10] = Apparent oral clearance in Sprague-Dawley rat at 3 mg/kg, po measured for 24 hrs by UPLC/MS/MS analysis; assay type: ADME, organism-based; conditions: in vivo
[11] = Metabolic stability in rat plasma assessed as enzymatic hydrolysis at 50 to 10000 ng/ml incubated upto 120 mins; assay type: ADME, cell-free; conditions: 2 h, dose 50-10000 ng/ml
[12] = Apparent oral clearance in Sprague-Dawley rat at 9 mg/kg, po measured for 24 hrs by UPLC/MS/MS analysis; assay type: ADME, organism-based; conditions: in vivo
[13] = Tmax in female Sprague-Dawley rat at 100 mg/kg, po qd treated for 13 weeks consecutively measured after recovery period on day 91 by UP/LC/MS/MS analysis; assay type: ADME, organism-based; conditions: in vivo, time 91 day
[14] = Metabolic stability in human liver microsomes assessed as drug metabolism at 10 umol/L incubated upto 120 mins in presence of NADPH by LC-MS/MS analysis; assay type: ADME, Microsome; conditions: 2 h, 10 µM, dose 10 µmol/L
[15] = Tmax in female Sprague-Dawley rat at 10 mg/kg, po qd treated for 13 weeks consecutively measured after recovery period on day 91 by UP/LC/MS/MS analysis; assay type: ADME, organism-based; conditions: in vivo, time 91 day
[16] = AUC (0 to t) in Sprague-Dawley rat at 1 mg/kg, po measured for 24 hrs by UPLC/MS/MS analysis; assay type: ADME, organism-based; conditions: in vivo
Rattus norvegicus [17] = experiment: Antihypertensive activity in 2K2C renovascular hypertensive Sprague-Dawley rat model assessed as decrease in diastolic blood pressure at 10 mg/kg, po measured after 9 weeks; assay type: functional, organism-based
[18] = Cmax in Sprague-Dawley rat at 1 mg/kg, iv measured for 24 hrs by UPLC/MS/MS analysis; assay type: ADME, organism-based; conditions: in vivo
[19] = Cmax in male Sprague-Dawley rat at 100 mg/kg, po measured on day 1 by UP/LC/MS/MS analysis; assay type: ADME, organism-based; conditions: in vivo, time 1 day
[20] = Tmax in Sprague-Dawley rat at 1 mg/kg, po measured for 24 hrs by UPLC/MS/MS analysis; assay type: ADME, organism-based; conditions: in vivo
Rattus norvegicus [21] = experiment: Effect on postural hypotension in Sprague-Dawley rat assessed as change in systolic blood pressure at 5 mg/kg, po treated for >30 mins followed by induction of postural hypotension measured immediately after postural change (reference value: 131 +/- 9 mmHg); assay type: functional; conditions: 0.5 h
[22] = Cmax in female Sprague-Dawley rat at 100 mg/kg, po qd treated for 13 weeks consecutively measured after recovery period on day 91 by UP/LC/MS/MS analysis; assay type: ADME, organism-based; conditions: in vivo, time 91 day
Rattus norvegicus [23] = experiment: Effect on postural hypotension in Sprague-Dawley rat assessed as change in systolic blood pressure at 10 mg/kg, po treated for >30 mins followed by induction of postural hypotension measured 20 secs after postural change (reference value: 129 +/- 11 mmHg); assay type: functional; conditions: time > 30.33 min, 0.5055 h
[24] = Acute toxicity in Sprague-Dawley rat assessed as discernible drug-related alterations at 250 to 1000 mg/kg, po single administration measured for 14 days; assay type: organism-based; conditions: in vivo, 336 h, dose 250-1000 mg/kg, time 14 day
[25] = AUC (0 to t) in male Sprague-Dawley rat at 10 mg/kg, po qd treated for 13 weeks consecutively measured after recovery period on day 91 by UP/LC/MS/MS analysis; assay type: ADME, organism-based; conditions: in vivo, time 91 day
[26] = Metabolic stability in Beagle dog liver microsomes assessed as drug metabolism at 10 umol/L incubated upto 120 mins in presence of NADPH by LC-MS/MS analysis; assay type: ADME, Canis lupus familiaris, Microsome; conditions: 2 h, 10 µM, dose 10 µmol/L
[27] = Plasma protein binding in Beagle dog at 0.1 uM incubated for 30 mins; assay type: ADME, cell-free, Canis lupus familiaris; conditions: read-out: PPB (converted)
[28] = Metabolic stability in rat liver microsomes assessed as drug elimination at 10 umol/L incubated for 5 mins in presence of NADPH by LC-MS/MS analysis; assay type: ADME, Microsome; conditions: 10 µM, dose 10 µmol/L
[29] = Metabolic stability in human liver microsomes assessed as drug elimination at 10 umol/L incubated for 5 mins in presence of NADPH by LC-MS/MS analysis; assay type: ADME, Microsome; conditions: 10 µM, dose 10 µmol/L
[30] = AUC (0 to t) in female Sprague-Dawley rat at 30 mg/kg, po qd treated for 13 weeks consecutively measured after recovery period on day 91 by UP/LC/MS/MS analysis; assay type: ADME, organism-based; conditions: in vivo, time 91 day

## Cl.c1ccc2c(c1)nnn2CCCCN1CCN(c2nsc3ccccc23)CC1
Rattus norvegicus [1]
  Activity: 83 mmHg
[2]
  AUC(0-t) at 24 h: 440 ng·h/mL
[3]
  Cmax: 408 ng/mL
[4]
  Activity: Non-Toxic
[5]
  Drug metabolism: Metabolite_Detected
[6]
  fraction unbound at 0.5 h, 0.1 µM: 0.003
Rattus norvegicus [7]
  Activity: Active
[8]
  inhibition: 96%
[9]
  Tmax: 1.3 h
[10]
  CL/F: 130 mL/min
[11]
  Stability: Stable
[12]
  CL/F: 587 mL/min
[13]
  Tmax: 2.5 h
[14]
  Drug metabolism: Metabolite_Detected
[15]
  Tmax: 1 h
[16]
  AUC(0-t) at 24 h: 51.7 ng·h/mL
Rattus norvegicus [17]
  Activity: Active
[18]
  Cmax: 468 ng/mL
[19]
  Cmax: 347 ng/mL
[20]
  Tmax: 9.6 min
Rattus norvegicus [21]
  Activity: 89 mmHg
[22]
  Cmax: 745 ng/mL
Rattus norvegicus [23]
  Activity: 85 mmHg
[24]
  Activity: Non-Toxic
[25]
  AUC(0-t) at 2184 h: 112 ng·h/mL
[26]
  Drug metabolism: Metabolite_Detected
[27]
  fraction unbound at 0.5 h, 0.1 µM: 0.012
[28]
  Drug excretion: Active
[29]
  Drug excretion: Active
[30]
  AUC(0-t) at 2184 h: 1470 ng·h/mL

Reference: ChEMBL document CHEMBL5614376, “Discovery of MT-1207: A Novel, Potent Multitarget Inhibitor as a Promising Clinical Candidate for the Treatment of Hypertension” (J Med Chem, 2024)
